Data reported in the kinase profiling compilation of Christmann-Franck et al. (2016).

Assays:
Assay in all cases: radiometric filter-binding kinase assay, Kinase HotSpot
Settings in all cases: compound 0.5 µM; ATP 10 µM
GSK3A (human) = GSK3A (human) (UniProt P49840)
PAK3 (human) = PAK3 (human) (UniProt O75914)
CSNK1A1 (human) = CSNK1A1 (human) (UniProt P48729)
PRKACA (human) = PRKACA (human) (UniProt P17612)
SRPK1 (human) = SRPK1 (human) (UniProt Q96SB4)
MAP3K8 (human) = MAP3K8 (human) (UniProt P41279)
ROS1 (human) = ROS1 (human) (UniProt P08922)
NUAK1 (human) = NUAK1 (human) (UniProt O60285)
ULK1 (human) = ULK1 (human) (UniProt O75385)
CDC42BPB (human) = CDC42BPB (human) (UniProt Q9Y5S2)
ACVR1 (human) = ACVR1 (human) (UniProt Q04771)
CDK5 CDK5R1 p25 (human) = CDK5 CDK5R1 p25 (human) (UniProt Q00535+Q15078)
RPS6KB2 (human) = RPS6KB2 (human) (UniProt Q9UBS0)
PIM3 (human) = PIM3 (human) (UniProt Q86V86)
MYLK2 (human) = MYLK2 (human) (UniProt Q9H1R3)
PTK2 (human) = PTK2 (human) (UniProt Q05397)
RPS6KA6 KD1 KD2 (human) = RPS6KA6 KD1 KD2 (human) (UniProt Q9UK32)
CSNK1E (human) = CSNK1E (human) (UniProt P49674)
CAMK2G (human) = CAMK2G (human) (UniProt Q13555)
CSNK1G3 (human) = CSNK1G3 (human) (UniProt Q9Y6M4)
MAP3K3 (human) = MAP3K3 (human) (UniProt Q99759)
BRSK1 (human) = BRSK1 (human) (UniProt Q8TDC3)
MKNK2 (human) = MKNK2 (human) (UniProt Q9HBH9)
RIPK2 (human) = RIPK2 (human) (UniProt O43353)
AURKC (human) = AURKC (human) (UniProt Q9UQB9)
EPHA1 (human) = EPHA1 (human) (UniProt P21709)
DYRK4 (human) = DYRK4 (human) (UniProt Q9NR20)
CDK2 CCNA2 (human) = CDK2 CCNA2 (human) (UniProt P24941+P20248)
ERBB4 (human) = ERBB4 (human) (UniProt Q15303)
MYLK (human) = MYLK (human) (UniProt Q15746)
TEC (human) = TEC (human) (UniProt P42680)
DMPK (human) = DMPK (human) (UniProt Q09013)
ADRBK1 (human) = ADRBK1 (human) (UniProt P25098)
CLK4 (human) = CLK4 (human) (UniProt Q9HAZ1)
AURKA (human) = AURKA (human) (UniProt O14965)
FGFR4 (human) = FGFR4 (human) (UniProt P22455)
RAF1 (human) = RAF1 (human) (UniProt P04049)
YES1 (human) = YES1 (human) (UniProt P07947)
RPS6KA5 KD2 (human) = RPS6KA5 KD2 (human) (UniProt O75582)
TGFBR1 (human) = TGFBR1 (human) (UniProt P36897)
FGFR1 (human) = FGFR1 (human) (UniProt P11362)
DAPK3 (human) = DAPK3 (human) (UniProt O43293)

TGFBR1 (human), sequence (P36897 whole entry, looked up): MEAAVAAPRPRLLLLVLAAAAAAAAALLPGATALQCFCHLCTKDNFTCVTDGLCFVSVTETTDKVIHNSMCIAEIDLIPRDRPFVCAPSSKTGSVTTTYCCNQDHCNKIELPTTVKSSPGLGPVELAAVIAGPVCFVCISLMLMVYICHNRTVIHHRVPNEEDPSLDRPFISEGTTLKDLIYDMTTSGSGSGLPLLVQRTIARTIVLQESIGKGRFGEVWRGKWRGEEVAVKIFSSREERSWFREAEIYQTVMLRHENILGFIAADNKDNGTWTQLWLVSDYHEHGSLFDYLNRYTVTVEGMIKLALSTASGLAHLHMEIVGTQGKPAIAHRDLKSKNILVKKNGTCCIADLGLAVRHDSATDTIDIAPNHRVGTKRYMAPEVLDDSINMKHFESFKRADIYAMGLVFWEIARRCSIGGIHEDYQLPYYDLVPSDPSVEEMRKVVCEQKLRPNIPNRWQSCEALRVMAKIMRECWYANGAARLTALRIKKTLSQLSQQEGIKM
RPS6KA5 KD2 (human), sequence (O75582 whole entry, looked up): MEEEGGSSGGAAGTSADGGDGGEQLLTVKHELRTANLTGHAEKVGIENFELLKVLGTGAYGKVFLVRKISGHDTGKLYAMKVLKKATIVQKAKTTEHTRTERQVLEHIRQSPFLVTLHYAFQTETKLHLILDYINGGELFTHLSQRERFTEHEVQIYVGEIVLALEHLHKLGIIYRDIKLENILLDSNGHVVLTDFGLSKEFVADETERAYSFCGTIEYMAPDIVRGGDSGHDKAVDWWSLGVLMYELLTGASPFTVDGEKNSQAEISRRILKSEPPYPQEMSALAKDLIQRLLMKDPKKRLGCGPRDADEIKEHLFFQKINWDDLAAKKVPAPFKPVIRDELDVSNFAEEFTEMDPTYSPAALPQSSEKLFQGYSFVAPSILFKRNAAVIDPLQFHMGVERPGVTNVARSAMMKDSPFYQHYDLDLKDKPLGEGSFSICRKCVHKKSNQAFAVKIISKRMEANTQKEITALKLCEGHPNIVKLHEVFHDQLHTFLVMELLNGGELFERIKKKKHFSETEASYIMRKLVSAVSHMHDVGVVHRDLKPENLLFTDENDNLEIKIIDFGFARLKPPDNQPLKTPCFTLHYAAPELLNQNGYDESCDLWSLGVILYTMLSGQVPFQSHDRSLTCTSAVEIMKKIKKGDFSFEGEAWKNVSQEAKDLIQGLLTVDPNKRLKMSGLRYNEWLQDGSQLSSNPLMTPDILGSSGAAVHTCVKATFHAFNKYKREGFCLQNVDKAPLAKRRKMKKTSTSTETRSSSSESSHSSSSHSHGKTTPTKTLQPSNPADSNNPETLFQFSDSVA
CDK5 CDK5R1 p25 (human), sequence (Q00535 whole entry, looked up): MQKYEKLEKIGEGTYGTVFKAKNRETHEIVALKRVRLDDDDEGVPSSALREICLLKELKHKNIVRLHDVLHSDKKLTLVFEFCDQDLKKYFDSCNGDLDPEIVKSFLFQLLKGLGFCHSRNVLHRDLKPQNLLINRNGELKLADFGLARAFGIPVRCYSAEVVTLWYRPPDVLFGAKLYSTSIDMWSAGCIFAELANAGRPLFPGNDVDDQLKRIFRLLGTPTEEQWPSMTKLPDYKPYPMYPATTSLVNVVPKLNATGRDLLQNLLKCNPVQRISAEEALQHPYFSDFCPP
CDK5 CDK5R1 p25 (human), sequence (Q15078 whole entry, looked up): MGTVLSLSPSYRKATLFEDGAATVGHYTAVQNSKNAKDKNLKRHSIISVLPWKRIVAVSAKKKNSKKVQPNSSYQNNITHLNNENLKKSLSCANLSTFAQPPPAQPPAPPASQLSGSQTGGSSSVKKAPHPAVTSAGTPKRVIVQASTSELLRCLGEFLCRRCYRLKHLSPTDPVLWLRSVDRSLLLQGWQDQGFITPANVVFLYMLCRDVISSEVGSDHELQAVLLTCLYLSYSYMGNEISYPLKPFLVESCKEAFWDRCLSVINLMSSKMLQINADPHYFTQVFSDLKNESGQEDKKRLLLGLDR
ERBB4 (human), sequence (Q15303 whole entry, looked up): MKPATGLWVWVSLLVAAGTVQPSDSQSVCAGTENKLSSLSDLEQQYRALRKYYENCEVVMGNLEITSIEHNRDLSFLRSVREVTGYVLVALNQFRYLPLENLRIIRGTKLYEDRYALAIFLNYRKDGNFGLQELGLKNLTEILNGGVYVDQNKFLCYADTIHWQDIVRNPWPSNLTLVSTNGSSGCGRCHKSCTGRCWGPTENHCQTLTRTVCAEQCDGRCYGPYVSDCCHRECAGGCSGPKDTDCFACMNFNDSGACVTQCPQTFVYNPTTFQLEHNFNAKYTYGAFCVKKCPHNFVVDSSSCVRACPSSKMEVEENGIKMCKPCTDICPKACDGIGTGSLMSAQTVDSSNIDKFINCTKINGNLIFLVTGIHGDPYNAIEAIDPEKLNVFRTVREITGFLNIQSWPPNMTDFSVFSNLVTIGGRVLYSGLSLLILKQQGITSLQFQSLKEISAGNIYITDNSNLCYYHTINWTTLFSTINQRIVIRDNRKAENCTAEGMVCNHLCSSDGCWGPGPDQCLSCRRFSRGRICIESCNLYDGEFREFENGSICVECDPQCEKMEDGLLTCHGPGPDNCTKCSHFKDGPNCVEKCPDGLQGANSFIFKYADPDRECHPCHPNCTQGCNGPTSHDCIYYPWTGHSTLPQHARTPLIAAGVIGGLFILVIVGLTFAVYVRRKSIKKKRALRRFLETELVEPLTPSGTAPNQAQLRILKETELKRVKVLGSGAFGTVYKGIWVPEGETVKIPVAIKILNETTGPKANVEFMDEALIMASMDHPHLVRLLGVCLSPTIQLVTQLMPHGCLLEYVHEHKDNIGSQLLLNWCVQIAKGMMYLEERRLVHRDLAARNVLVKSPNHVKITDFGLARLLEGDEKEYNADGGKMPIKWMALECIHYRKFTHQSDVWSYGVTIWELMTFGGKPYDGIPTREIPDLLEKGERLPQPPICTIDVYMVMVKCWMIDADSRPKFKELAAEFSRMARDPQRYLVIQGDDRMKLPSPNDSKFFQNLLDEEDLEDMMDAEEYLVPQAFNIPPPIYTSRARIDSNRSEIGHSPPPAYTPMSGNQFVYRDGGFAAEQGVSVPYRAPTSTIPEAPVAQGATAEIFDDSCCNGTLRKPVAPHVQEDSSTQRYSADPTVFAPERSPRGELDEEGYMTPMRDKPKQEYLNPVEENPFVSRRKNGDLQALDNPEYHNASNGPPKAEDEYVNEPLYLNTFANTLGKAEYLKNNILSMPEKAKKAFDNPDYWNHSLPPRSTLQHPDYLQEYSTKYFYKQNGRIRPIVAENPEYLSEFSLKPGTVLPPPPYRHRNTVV
ACVR1 (human), sequence (Q04771 whole entry, looked up): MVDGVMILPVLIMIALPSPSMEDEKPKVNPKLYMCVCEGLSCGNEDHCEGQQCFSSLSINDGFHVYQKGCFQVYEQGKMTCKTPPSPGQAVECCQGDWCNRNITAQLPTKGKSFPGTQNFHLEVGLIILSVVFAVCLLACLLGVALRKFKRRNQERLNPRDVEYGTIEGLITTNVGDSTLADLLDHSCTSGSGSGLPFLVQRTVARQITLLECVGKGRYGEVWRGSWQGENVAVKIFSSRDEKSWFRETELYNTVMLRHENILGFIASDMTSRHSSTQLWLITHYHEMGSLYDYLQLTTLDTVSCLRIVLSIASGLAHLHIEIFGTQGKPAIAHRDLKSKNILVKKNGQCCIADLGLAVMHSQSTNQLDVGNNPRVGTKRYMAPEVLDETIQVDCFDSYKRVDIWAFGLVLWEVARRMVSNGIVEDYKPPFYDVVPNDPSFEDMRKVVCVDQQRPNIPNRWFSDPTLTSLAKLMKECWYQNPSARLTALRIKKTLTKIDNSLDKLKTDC
TEC (human), sequence (P42680 whole entry, looked up): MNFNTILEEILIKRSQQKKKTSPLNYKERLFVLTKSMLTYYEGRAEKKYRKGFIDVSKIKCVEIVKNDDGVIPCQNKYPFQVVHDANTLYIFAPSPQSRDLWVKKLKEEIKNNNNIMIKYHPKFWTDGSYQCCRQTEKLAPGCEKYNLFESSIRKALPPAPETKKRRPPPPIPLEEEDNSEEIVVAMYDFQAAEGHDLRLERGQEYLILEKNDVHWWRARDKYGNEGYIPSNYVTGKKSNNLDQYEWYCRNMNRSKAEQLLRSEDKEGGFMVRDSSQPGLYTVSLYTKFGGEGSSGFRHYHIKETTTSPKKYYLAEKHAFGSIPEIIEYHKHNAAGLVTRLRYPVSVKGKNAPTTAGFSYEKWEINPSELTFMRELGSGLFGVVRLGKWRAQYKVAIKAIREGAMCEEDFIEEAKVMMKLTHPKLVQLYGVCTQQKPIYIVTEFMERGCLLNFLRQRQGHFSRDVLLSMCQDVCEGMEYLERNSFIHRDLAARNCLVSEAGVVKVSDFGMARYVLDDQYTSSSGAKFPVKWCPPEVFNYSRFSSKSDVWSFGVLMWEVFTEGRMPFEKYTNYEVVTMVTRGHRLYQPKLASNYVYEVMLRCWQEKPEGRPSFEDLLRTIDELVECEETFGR
CSNK1A1 (human), sequence (P48729 whole entry, looked up): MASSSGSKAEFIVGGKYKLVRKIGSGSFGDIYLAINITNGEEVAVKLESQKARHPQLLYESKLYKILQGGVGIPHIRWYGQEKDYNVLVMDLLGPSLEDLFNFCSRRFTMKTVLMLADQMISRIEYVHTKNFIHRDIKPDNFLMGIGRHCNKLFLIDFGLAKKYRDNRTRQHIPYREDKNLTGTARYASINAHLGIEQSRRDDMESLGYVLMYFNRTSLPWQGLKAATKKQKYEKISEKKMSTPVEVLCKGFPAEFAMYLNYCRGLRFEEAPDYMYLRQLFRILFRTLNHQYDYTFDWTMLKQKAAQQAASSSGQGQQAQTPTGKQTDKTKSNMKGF
AURKC (human), sequence (Q9UQB9 whole entry, looked up): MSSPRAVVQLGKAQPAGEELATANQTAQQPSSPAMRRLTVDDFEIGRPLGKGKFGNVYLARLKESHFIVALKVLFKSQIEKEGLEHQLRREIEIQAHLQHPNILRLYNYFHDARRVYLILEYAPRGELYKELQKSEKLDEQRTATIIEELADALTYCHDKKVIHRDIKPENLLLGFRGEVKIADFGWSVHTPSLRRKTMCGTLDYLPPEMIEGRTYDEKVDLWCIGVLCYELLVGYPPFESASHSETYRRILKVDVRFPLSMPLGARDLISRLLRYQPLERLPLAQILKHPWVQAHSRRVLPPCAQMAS

COc1ccc(C(=O)Nc2sc3c(c2C(N)=O)CCCC3)cc1OC
residual activity (GSK3A (human)): 83.6% | residual activity (PAK3 (human)): 96.2% | residual activity (CSNK1A1 (human)): 108% | residual activity (PRKACA (human)): 102% | residual activity (SRPK1 (human)): 82.6% | residual activity (MAP3K8 (human)): 106% | residual activity (ROS1 (human)): 78.8% | residual activity (NUAK1 (human)): 81.8% | residual activity (ULK1 (human)): 96% | residual activity (CDC42BPB (human)): 94.5% | residual activity (ACVR1 (human)): 159% | residual activity (CDK5 CDK5R1 p25 (human)): 94.2% | residual activity (RPS6KB2 (human)): 101% | residual activity (PIM3 (human)): 109% | residual activity (MYLK2 (human)): 94.4% | residual activity (PTK2 (human)): 116% | residual activity (RPS6KA6 KD1 KD2 (human)): 98.5% | residual activity (CSNK1E (human)): 94% | residual activity (CAMK2G (human)): 95.8% | residual activity (CSNK1G3 (human)): 91.7% | residual activity (MAP3K3 (human)): 100% | residual activity (BRSK1 (human)): 105% | residual activity (MKNK2 (human)): 78.7% | residual activity (RIPK2 (human)): 76.5% | residual activity (AURKC (human)): 97.2% | residual activity (EPHA1 (human)): 88.1% | residual activity (DYRK4 (human)): 98.5% | residual activity (CDK2 CCNA2 (human)): 103% | residual activity (ERBB4 (human)): 97.2% | residual activity (MYLK (human)): 41.2% | residual activity (TEC (human)): 115% | residual activity (DMPK (human)): 108% | residual activity (ADRBK1 (human)): 96.8% | residual activity (CLK4 (human)): 86.8% | residual activity (AURKA (human)): 97.9% | residual activity (FGFR4 (human)): 105% | residual activity (RAF1 (human)): 94.8% | residual activity (YES1 (human)): 88.3% | residual activity (RPS6KA5 KD2 (human)): 105% | residual activity (TGFBR1 (human)): 95.8% | residual activity (FGFR1 (human)): 94.8% | residual activity (DAPK3 (human)): 102%

O=C(c1cc2cc(O)ccc2[nH]1)c1cc2cc(O)ccc2[nH]1
residual activity (GSK3A (human)): 75.7% | residual activity (PAK3 (human)): 99.2% | residual activity (CSNK1A1 (human)): 96.3% | residual activity (PRKACA (human)): 107% | residual activity (SRPK1 (human)): 92.2% | residual activity (MAP3K8 (human)): 93% | residual activity (ROS1 (human)): 105% | residual activity (NUAK1 (human)): 69.2% | residual activity (ULK1 (human)): 60.1% | residual activity (CDC42BPB (human)): 96.2% | residual activity (ACVR1 (human)): 123% | residual activity (CDK5 CDK5R1 p25 (human)): 52.6% | residual activity (RPS6KB2 (human)): 102% | residual activity (PIM3 (human)): 98.9% | residual activity (MYLK2 (human)): 21.1% | residual activity (PTK2 (human)): 109% | residual activity (RPS6KA6 KD1 KD2 (human)): 26.7% | residual activity (CSNK1E (human)): 88.4% | residual activity (CAMK2G (human)): 89.5% | residual activity (CSNK1G3 (human)): 77.2% | residual activity (MAP3K3 (human)): 96% | residual activity (BRSK1 (human)): 53.6% | residual activity (MKNK2 (human)): 46.8% | residual activity (RIPK2 (human)): 37.8% | residual activity (AURKC (human)): 83.2% | residual activity (EPHA1 (human)): 81.1% | residual activity (DYRK4 (human)): 99.7% | residual activity (CDK2 CCNA2 (human)): 61.5% | residual activity (ERBB4 (human)): 102% | residual activity (MYLK (human)): 91.4% | residual activity (TEC (human)): 105% | residual activity (DMPK (human)): 96.9% | residual activity (ADRBK1 (human)): 98.2% | residual activity (CLK4 (human)): 79.1% | residual activity (AURKA (human)): 71.6% | residual activity (FGFR4 (human)): 92.8% | residual activity (RAF1 (human)): 104% | residual activity (YES1 (human)): 18.8% | residual activity (RPS6KA5 KD2 (human)): 96.1% | residual activity (TGFBR1 (human)): 93.4% | residual activity (FGFR1 (human)): 86.5% | residual activity (DAPK3 (human)): 104%
